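Cultured in 96-well plates, cells were exposed to test compound for 48 hours across five concentrations. Here, GI50 denotes the concentration required for 50% inhibition of growth. At the TGI there is no net growth.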
system: OVCAR-5 ovarian; assay: NCI tumour cell line growth inhibition, 48 h

Which TGI does the source give for COc1ccc(N2C(=O)CC(Cl)C2=O)cc1 (stereo not drawn) here?
Its TGI is 34.1 µM.

Which GI50 does the source give for O=C(/C=C/c1ccc(F)cc1)c1ccc(Cl)cc1Cl here?
Its GI50 is 32.4 µM.

What about the TGI of the same compound?
The TGI was 96.5 µM.

system: OVCAR-3 ovarian; assay: NCI tumour cell line growth inhibition, 48 h

For COc1cc(C(=O)/C(C)=C/c2c[nH]c3ccccc23)cc(OC)c1OC, which GI50 is on record?
Its GI50 is 0.00334 µM.

And the TGI?
The TGI was 0.0107 µM.

Which GI50 does the source give for CC(C)=CCCC(C)c1ccc(C)c2c1OCN(CC1CCNCC1)C2 (stereo not drawn) here?
The GI50 was 15.6 µM.

What about the TGI of the same compound?
Its TGI is 31.1 µM.

For COc1ccc(N2C(=O)CC(Cl)C2=O)cc1 (stereo not drawn), which TGI is on record?
Its TGI is 28.7 µM.

With O=C(/C=C/c1ccc(F)cc1)c1ccc(Cl)cc1Cl as the compound, how does the GI50 read?
The GI50 was 25.8 µM.

What about the TGI of the same compound?
The TGI was 73 µM.

system: NCI-H460 lung; assay: NCI tumour cell line growth inhibition, 48 h

With N=c1oc2ccc([N+](=O)[O-])cc2cc1C(=O)NCc1ccccc1 as the compound, how does the TGI read?
Its TGI is greater than 100 µM.

For COc1cc(C(=O)/C(C)=C/c2c[nH]c3ccccc23)cc(OC)c1OC, which GI50 is on record?
The GI50 was 0.00369 µM.

And the TGI?
Its TGI is greater than 100 µM.

Which results are given for CC(C)=CCCC(C)c1ccc(C)c2c1OCN(CC1CCNCC1)C2 (stereo not drawn)?
GI50: 5.36 µM; TGI: 16.6 µM

With COc1ccc(N2C(=O)CC(Cl)C2=O)cc1 (stereo not drawn) as the compound, how does the TGI read?
The TGI was greater than 100 µM.

What does the source list for O=C(/C=C/c1ccc(F)cc1)c1ccc(Cl)cc1Cl?
GI50: 65.6 µM; TGI: > 100 µM

system: SF-268 CNS; assay: NCI tumour cell line growth inhibition, 48 h

For N=c1oc2ccc([N+](=O)[O-])cc2cc1C(=O)NCc1ccccc1, which TGI is on record?
The TGI was 40.6 µM.

Which results are given for COc1cc(C(=O)/C(C)=C/c2c[nH]c3ccccc23)cc(OC)c1OC?
GI50: 0.00544 µM; TGI: 10.6 µM

Which GI50 does the source give for CC(C)=CCCC(C)c1ccc(C)c2c1OCN(CC1CCNCC1)C2 (stereo not drawn) here?
Its GI50 is 16.6 µM.

What about the TGI of the same compound?
Its TGI is 33.3 µM.

Which TGI does the source give for COc1ccc(N2C(=O)CC(Cl)C2=O)cc1 (stereo not drawn) here?
Its TGI is greater than 100 µM.

How did the GI50 turn out when O=C(/C=C/c1ccc(F)cc1)c1ccc(Cl)cc1Cl was run?
The GI50 was 74.5 µM.

And the TGI?
Its TGI is greater than 100 µM.

system: SK-OV-3 ovarian; assay: NCI tumour cell line growth inhibition, 48 h

With N=c1oc2ccc([N+](=O)[O-])cc2cc1C(=O)NCc1ccccc1 as the compound, how does the TGI read?
The TGI was greater than 100 µM.

COc1cc(C(=O)/C(C)=C/c2c[nH]c3ccccc23)cc(OC)c1OC was tested. Which GI50 did it give?
Its GI50 is 0.00768 µM.

And the TGI?
Its TGI is 76.8 µM.

Which GI50 does the source give for CC(C)=CCCC(C)c1ccc(C)c2c1OCN(CC1CCNCC1)C2 (stereo not drawn) here?
Its GI50 is 16.7 µM.

What about the TGI of the same compound?
The TGI was 31.1 µM.

For COc1ccc(N2C(=O)CC(Cl)C2=O)cc1 (stereo not drawn), which TGI is on record?
Its TGI is greater than 100 µM.

For O=C(/C=C/c1ccc(F)cc1)c1ccc(Cl)cc1Cl, which GI50 is on record?
Its GI50 is greater than 100 µM.

What about the TGI of the same compound?
Its TGI is greater than 100 µM.

system: DU-145 prostate; assay: NCI tumour cell line growth inhibition, 48 h

Which TGI does the source give for N=c1oc2ccc([N+](=O)[O-])cc2cc1C(=O)NCc1ccccc1 here?
The TGI was greater than 100 µM.

COc1cc(C(=O)/C(C)=C/c2c[nH]c3ccccc23)cc(OC)c1OC was tested. Which GI50 did it give?
Its GI50 is 0.00383 µM.

And the TGI?
The TGI was greater than 100 µM.

Which results are given for CC(C)=CCCC(C)c1ccc(C)c2c1OCN(CC1CCNCC1)C2 (stereo not drawn)?
GI50: 16.4 µM; TGI: 32.2 µM

COc1ccc(N2C(=O)CC(Cl)C2=O)cc1 (stereo not drawn) was tested. Which TGI did it give?
The TGI was greater than 100 µM.

For O=C(/C=C/c1ccc(F)cc1)c1ccc(Cl)cc1Cl, which GI50 is on record?
Its GI50 is 53.4 µM.

And the TGI?
The TGI was greater than 100 µM.

system: ACHN renal; assay: NCI tumour cell line growth inhibition, 48 h

N=c1oc2ccc([N+](=O)[O-])cc2cc1C(=O)NCc1ccccc1 was tested. Which TGI did it give?
Its TGI is 31.1 µM.

What does the source list for COc1cc(C(=O)/C(C)=C/c2c[nH]c3ccccc23)cc(OC)c1OC?
GI50: 0.00619 µM; TGI: > 100 µM

Which GI50 does the source give for CC(C)=CCCC(C)c1ccc(C)c2c1OCN(CC1CCNCC1)C2 (stereo not drawn) here?
The GI50 was 15.3 µM.

And the TGI?
The TGI was 30 µM.

COc1ccc(N2C(=O)CC(Cl)C2=O)cc1 (stereo not drawn) was tested. Which TGI did it give?
The TGI was 31.7 µM.

For O=C(/C=C/c1ccc(F)cc1)c1ccc(Cl)cc1Cl, which GI50 is on record?
Its GI50 is greater than 100 µM.

And the TGI?
The TGI was greater than 100 µM.

system: M14 melanoma; assay: NCI tumour cell line growth inhibition, 48 h

N=c1oc2ccc([N+](=O)[O-])cc2cc1C(=O)NCc1ccccc1 was tested. Which TGI did it give?
Its TGI is 61.3 µM.

Which GI50 does the source give for COc1cc(C(=O)/C(C)=C/c2c[nH]c3ccccc23)cc(OC)c1OC here?
Its GI50 is 0.00338 µM.

What about the TGI of the same compound?
Its TGI is 1.89 µM.

Reference: PubChem BioAssay (NCI)
